Reference: patent US9949956B2, “Compounds, compositions, and methods for preventing metastasis of cancer cells” (Aerpio Therapeutics, Inc., priority 2009, dated 2018)
Where “and” joins values, the source holds several entries; their conditions need not be identical. Identical values can stand only once.

Assays:
[1] = test system: MiaPaCa-2-RFP tumor fragments; assay: In vivo pancreatic cancer study, surgical orthotopic implantation of MiaPaCa-2-RFP tumor fragments; set-up: species or system NCr nu/nu males; details: FIG. 9
Excerpt: The effectiveness of the disclosed compounds as a treatment for pancreatic cancer was investigated. 60 NCr nu/nu males, 5-6 weeks old were transplanted by surgical orthotopic implantation (SOI) using MiaPaCa-2-RFP tumor fragments harvested from stock animals. The animals were anesthetized with isoflurane and the surgical area was sterilized using iodine and alcohol. An incision approximately 1.5 cm long was made in the left upper abdomen of the nude mouse using a pair of surgical scissors. […] The abdomen was closed with 6-0 surgical sutures (silk). All procedures of the operation described above were performed with a 7× magnification microscope (Olympus) under HEPA filtered laminar flow hoods. Dosing of the animals began three days following tumor implantation. The high dose of gemcitabine was 150 mg/kg. The low dose of gemcitabine was 100 mg/kg. […] was given at 20 mg/kg. […] The animals were divided into the following groups often animals each as depicted in Table XXII.

Renca renal cancer cells = assay: In vivo anticancer study, renal cell carcinoma (Renca); set-up: species or system Balb/c mice; details: FIG. 1 and FIG. 2
Experimental: The effectiveness of the disclosed compounds as a treatment against renal cell carcinoma was studied. Balb/c mice (6-8 weeks-old, female, Taconic Farm) were inoculated with Renca renal cancer cells (5×10^5 cells/site). […] Tumor volumes were recorded.

[2] = test system: H460-GFP human tumor cells; assay: In vivo anti-metastasis study, surgical orthotopic implantation of H460-GFP tumor fragments on the lung; set-up: species or system NCr nu/nu male mice; details: for Evidence of Metastasis (individual mouse): mice No. 1-10; for # mice with metastases: ten mice per group
Experimental: A total of 50 NCr nu/nu male mice aged 5-6 weeks were selected for the following in vivo test. H460-GFP human tumor cells were grown subcutaneously in NCr nu/nu male mice after which the resulting tumors were harvested. Subsequent to harvesting, recipient NCr nu/nu mice of this study had tumor fragments transplanted by surgical orthotopic implantation (SOI). Each animal was anesthetized is isofurane and the surgical area was sterilized with iodine and alcohol. A transverse incision approximately 1.5 cm long was made in the left chest wall of the mice using a pair of surgical scissors. An intercostal incision was made between the third and the fourth costa and the left lung was exposed. Two pieces of H460-GFP tumor fragments were transplanted to the surface of the lung with 8-0 surgical nylon suture. […]. The lung was re-inflated by the intrathoracic puncture using 3 cc syringe with 25 G 11⁄2 needle to draw out the remaining air in the chest cavity. The chest wall was closed with 6-0 surgical silk sutures. All procedures of the operation described above were performed with a 7× magnification microscope (Olympus) under HEPA filtered laminar flow hoods. The treated mice were divided into five groups containing ten mice each. Group I (Control) received 100 μL the drug vehicle twice daily for 15 days. Group II received 15 mg/kg of taxol intravenously at days 6, 9, 12, and 15. […] Group IV received 10 mg/kg of taxol intravenously at days 6, 9, 12, and 15 and 15 mg/kg of the Test Compound twice per day from day 3 to day 15. Group V received 15 mg/kg of the Test Compound twice per day from day 3 to day 15. All animals were sacrificed on day 28. Each animal was checked twice a week for primary tumor and metastasis via GFP open imaging of the mediastinal lymph nodes. No metastasis was found on any other organs. Six mice from the control group died before the end of the study, but were evaluated for tumor and/or cellular metastasis.

B16 melanoma cells = assay: In vivo anticancer study, B16 melanoma; set-up: species or system C57BL/6 mice
Experimental: The effectiveness of the disclosed compounds as a treatment for melanoma was studied. C57BL/6 mice (6-8 weeks-old, female, Taconic Farm) were inoculated with B16 melanoma cells (5×10^4 cells/site, s.c.). […] Tumor volumes were recorded. […] Tumor volumes were recorded.

For COC(=O)N[C@@H](Cc1ccccc1)C(=O)N[C@@H](Cc1ccc(NS(=O)(=O)O)cc1)c1csc(-c2cccs2)n1 [D91, 4-{(S)-2-[(S)-2-(Methoxycarbonylamino)-3-phenylpropanamido]-2-[2-(thiophen-2-yl)thiazol-4-yl]ethyl}phenylsulfamic acid], the pancreatic tumor volume ([1]; D91 20 mg/kg s.c. twice daily alone, day 28) was “significant reduction in pancreatic tumor volume”, the tumor volume ([1]; combination of low dose gemcitabine (100 mg/kg i.p.) and 20 mg/kg D91, compared with either alone) was “greater reduction in tumor volume” and the “reducing tumor volume, compared with IL-2” value (Renca renal cancer cells; D91 40 mg/kg bid s.c. versus IL-2 100,000 IU/mouse bid i.p.) was “as effective as IL-2 in reducing tumor volume”. The renal tumor growth (Renca renal cancer cells; D91 40 mg/kg, bid, s.c. alone) was “significantly reduced renal tumor growth”, the tumor volume (Renca renal cancer cells; combination of D91 (40 mg/kg, bid, s.c.) and IL-2 (100,000 IU/mouse, bid, i.p.)) was “further reduced tumor volume” and the “Evidence of Metastasis (individual mouse)” value ([2]; Group V: D91 15 mg/kg twice per day, day 3 to 15, 15 mg/kg) was “Yes (2×) and No (8×)”. The “# mice with metastases” value ([2]; Group V: D91 15 mg/kg twice per day, day 3 to 15) was 2, the “B16 melanoma tumor volume” value (B16 melanoma cells; 40 mg/kg b.i.d. D91 alone versus vehicle control, FIG. 8) was “effectiveness” and the tumor volume (B16 melanoma cells; high dose of IL-2 (300,000 IU/mouse, bid, i.p.) in combination with high dose of D91 (40 mg/kg, bid, s.c.), compared to high dose IL-2 alone, FIG. 3) was “significantly reduced tumor volume as compared to high dose of IL-2”. The tumor volume (B16 melanoma cells; low dose of IL-2 (100,000 IU/mouse, bid, i.p.) in combination with high dose of D91 (40 mg/kg, bid, s.c.) versus control, FIG. 6) was “significantly reduced tumor volume versus control”.
For CC(=O)O[C@H]1C(=O)[C@@]2(C)[C@H]([C@H](OC(=O)c3ccccc3)[C@]3(O)C[C@H](OC(=O)[C@H](O)[C@@H](NC(=O)c4ccccc4)c4ccccc4)C(C)=C1C3(C)C)[C@]1(OC(C)=O)CO[C@@H]1C[C@@H]2O [taxol, reference compound], the “Evidence of Metastasis (individual mouse)” value ([2]; Group II: taxol 15 mg/kg i.v. at days 6, 9, 12, 15, GFP open imaging of mediastinal lymph nodes) was “No (9×) and Yes” and the “# mice with metastases” value ([2]; Group II: taxol 15 mg/kg i.v. at days 6, 9, 12, 15) was 1.
